In patent US9980943B2, “Methods of treating muscular dystrophy” (BOARD OF REGENTS OF THE NEVADA SYSTEM OF HIGHER EDUCATION, …, priority 2013, dated 2018):

Assays:
Assay type in all cases: cell-based, mouse
[1] = system: α7 integrin (LacZ reporter in α7βgal+/− myoblasts); experiment: Myoblast α7+/LacZ integrin FDG assay (Burkin assay in myoblasts, 96-well); conditions: 96-well; for Burkin Assay in Myoblasts, value relative to DMSO: SU9516 analogs, N=3-6; for Burkin Assay in Myoblasts, signal relative to DMSO: α7+/LacZ myoblasts
[2] = system: α7 integrin (LacZ reporter in α7+/LacZ myotubes); experiment: Myotube α7 integrin FDG assay (Burkin assay in myotubes, 96-well); conditions: for Burkin Assay in Myotubes, value relative to DMSO: SU9516 analogs, 96-well, N=3-6
[3] = system: β-galactosidase in CMV-LacZ C2C12 myoblasts; experiment: CMV-LacZ secondary screen in C2C12 myoblasts (β-Gal stabilizing assay); conditions: for CMV-LACZ in Myoblasts, value relative to DMSO: SU9516 analogs, C2C12 CMV-LacZ, N=2; for CMV-LACZ in Myoblasts (β-galactosidase activity relative to DMSO): CMV-LacZ C2C12 myoblasts
How it was run: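 A secondary screen identifies compounds that stabilize β-gal independently of the native promoter, using CMV-LacZ C2C12 cells. Curves span 0.5–40 μM at six levels, in duplicate.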

[4] = system: β-galactosidase in CMV-LacZ C2C12 myotubes; experiment: CMV-LacZ secondary screen in C2C12 myotubes (β-Gal stabilizing assay); conditions: for CMV-LACZ in Myotubes, value relative to DMSO: SU9516 analogs, C2C12 CMV-LacZ, N=2; for CMV-LACZ in Myotubes, signal relative to DMSO: C2C12 CMV-LacZ myotubes, fold relative to DMSO
How it was run: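 Dose-response runs at 0.5–40 μM (0.5, 1, 5, 10, 20, 40 μM; N=2 per point) used a clonal C2C12 line carrying CMV-LacZ. Cells were assayed as myoblasts or as differentiated myotubes, and β-galactosidase levels were read with the FDG fluorogenic substrate.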

CCN(CC)CCNC(=O)c1c(C)[nH]c(/C=C2\C(=O)Nc3ccc(F)cc32)c1C [NCGC00164631-04]
Burkin Assay in Myoblasts, value relative to DMSO ([1]; 0.5 uM): 1.023
Burkin Assay in Myoblasts, value relative to DMSO ([1]; 1 uM): 1.011
Burkin Assay in Myoblasts, value relative to DMSO ([1]; 5 uM): 0.529
Burkin Assay in Myoblasts, value relative to DMSO ([1]; 10 uM): 0.08696
Burkin Assay in Myoblasts, value relative to DMSO ([1]; 20 uM): 0.01476
Burkin Assay in Myoblasts, value relative to DMSO ([1]; 40 uM): 0.01361
Burkin Assay in Myotubes, value relative to DMSO ([2]; 0.5 uM): 0.9761
Burkin Assay in Myotubes, value relative to DMSO ([2]; 1 uM): 0.9998
Burkin Assay in Myotubes, value relative to DMSO ([2]; 5 uM): 0.7739
Burkin Assay in Myotubes, value relative to DMSO ([2]; 10 uM): 0.2132
Burkin Assay in Myotubes, value relative to DMSO ([2]; 20 uM): 0.08218
Burkin Assay in Myotubes, value relative to DMSO ([2]; 40 uM): 0.08093
CMV-LACZ in Myoblasts, value relative to DMSO ([3]; 0.5 uM): 0.8225
CMV-LACZ in Myoblasts, value relative to DMSO ([3]; 5 uM): 0.6842
CMV-LACZ in Myoblasts, value relative to DMSO ([3]; 10 uM): 0.4405
CMV-LACZ in Myoblasts, value relative to DMSO ([3]; 20 uM): 0.2323
CMV-LACZ in Myoblasts, value relative to DMSO ([3]; 40 uM): 0.1827
CMV-LACZ in Myotubes, value relative to DMSO ([4]; 0.5 uM): 1.1336
CMV-LACZ in Myotubes, value relative to DMSO ([4]; 1 uM): 0.9164
CMV-LACZ in Myotubes, value relative to DMSO ([4]; 5 uM): 0.8803
CMV-LACZ in Myotubes, value relative to DMSO ([4]; 10 uM): 0.3804
CMV-LACZ in Myotubes, value relative to DMSO ([4]; 20 uM): 0.6490
CMV-LACZ in Myotubes, value relative to DMSO ([4]; 40 uM): 0.6690

CCCC(=O)OCC(=O)c1[nH]c(C)c(C(C)=O)c1C [MLS001007892-01]
Burkin Assay in Myoblasts, signal relative to DMSO ([1]; 0.5 uM): 1.127
Burkin Assay in Myoblasts, signal relative to DMSO ([1]; 1 uM): 1.037
Burkin Assay in Myoblasts, signal relative to DMSO ([1]; 5 uM): 1.016
Burkin Assay in Myoblasts, signal relative to DMSO ([1]; 10 uM): 1.23
Burkin Assay in Myoblasts, signal relative to DMSO ([1]; 20 uM): 0.7225
Burkin Assay in Myoblasts, signal relative to DMSO ([1]; 40 uM): 0.4983
Burkin Assay in Myotubes, α7 integrin LacZ reporter signal relative to DMSO ([2]; 0.5 uM): 0.9046
Burkin Assay in Myotubes, α7 integrin LacZ reporter signal relative to DMSO ([2]; 1 uM): 1.013
Burkin Assay in Myotubes, α7 integrin LacZ reporter signal relative to DMSO ([2]; 5 uM): 0.9742
Burkin Assay in Myotubes, α7 integrin LacZ reporter signal relative to DMSO ([2]; 10 uM): 1.075
Burkin Assay in Myotubes, α7 integrin LacZ reporter signal relative to DMSO ([2]; 20 uM): 0.8343
Burkin Assay in Myotubes, α7 integrin LacZ reporter signal relative to DMSO ([2]; 40 uM): 0.9888
CMV-LACZ in Myoblasts (β-galactosidase activity relative to DMSO) ([3]; 0.5 uM): 0.9338
CMV-LACZ in Myoblasts (β-galactosidase activity relative to DMSO) ([3]; 1 uM): 0.8108
CMV-LACZ in Myoblasts (β-galactosidase activity relative to DMSO) ([3]; 5 uM): 1.0511
CMV-LACZ in Myoblasts (β-galactosidase activity relative to DMSO) ([3]; 10 uM): 1.1495
CMV-LACZ in Myoblasts (β-galactosidase activity relative to DMSO) ([3]; 20 uM): 0.6390
CMV-LACZ in Myoblasts (β-galactosidase activity relative to DMSO) ([3]; 40 uM): 0.4953
CMV-LACZ in Myotubes, signal relative to DMSO ([4]; 0.5 uM): 1.1673
CMV-LACZ in Myotubes, signal relative to DMSO ([4]; 1 uM): 0.9291
CMV-LACZ in Myotubes, signal relative to DMSO ([4]; 5 uM): 1.0066
CMV-LACZ in Myotubes, signal relative to DMSO ([4]; 10 uM): 0.9543
CMV-LACZ in Myotubes, signal relative to DMSO ([4]; 20 uM): 1.2170
CMV-LACZ in Myotubes, signal relative to DMSO ([4]; 40 uM): 1.0540

Nc1cccc(/C=C/C(=O)O)c1 [MLS000777780-01]
Burkin Assay in Myoblasts, signal relative to DMSO ([1]; 0.5 uM): 1.136
Burkin Assay in Myoblasts, signal relative to DMSO ([1]; 1 uM): 1.056
Burkin Assay in Myoblasts, signal relative to DMSO ([1]; 5 uM): 0.9439
Burkin Assay in Myoblasts, signal relative to DMSO ([1]; 10 uM): 1.248
Burkin Assay in Myoblasts, signal relative to DMSO ([1]; 20 uM): 0.9133
Burkin Assay in Myoblasts, signal relative to DMSO ([1]; 40 uM): 0.7231
Burkin Assay in Myotubes, α7 integrin LacZ reporter signal relative to DMSO ([2]; 0.5 uM): 1.047
Burkin Assay in Myotubes, α7 integrin LacZ reporter signal relative to DMSO ([2]; 1 uM): 0.9837
Burkin Assay in Myotubes, α7 integrin LacZ reporter signal relative to DMSO ([2]; 5 uM): 0.8697
Burkin Assay in Myotubes, α7 integrin LacZ reporter signal relative to DMSO ([2]; 10 uM): 0.9393
Burkin Assay in Myotubes, α7 integrin LacZ reporter signal relative to DMSO ([2]; 20 uM): 0.8814
Burkin Assay in Myotubes, α7 integrin LacZ reporter signal relative to DMSO ([2]; 40 uM): 0.7756
CMV-LACZ in Myoblasts (β-galactosidase activity relative to DMSO) ([3]; 0.5 uM): 0.8779
CMV-LACZ in Myoblasts (β-galactosidase activity relative to DMSO) ([3]; 1 uM): 0.9063
CMV-LACZ in Myoblasts (β-galactosidase activity relative to DMSO) ([3]; 5 uM): 0.9893
CMV-LACZ in Myoblasts (β-galactosidase activity relative to DMSO) ([3]; 10 uM): 1.0126
CMV-LACZ in Myoblasts (β-galactosidase activity relative to DMSO) ([3]; 20 uM): 1.3393
CMV-LACZ in Myoblasts (β-galactosidase activity relative to DMSO) ([3]; 40 uM): 0.9463
CMV-LACZ in Myotubes, signal relative to DMSO ([4]; 0.5 uM): 0.8914
CMV-LACZ in Myotubes, signal relative to DMSO ([4]; 1 uM): 0.8838
CMV-LACZ in Myotubes, signal relative to DMSO ([4]; 5 uM): 1.0471
CMV-LACZ in Myotubes, signal relative to DMSO ([4]; 10 uM): 0.8808
CMV-LACZ in Myotubes, signal relative to DMSO ([4]; 20 uM): 0.9316
CMV-LACZ in Myotubes, signal relative to DMSO ([4]; 40 uM): 1.0474
